Test results taken from US10123994B2, “Heterocyclic derivative having AMPK-activating activity” (SHIONOGI & CO., LTD., priority 2014, dated 2018).

Target: T1, Human AMPK α2β2γ1 (Homo sapiens, UniProt O43741+P54619+P54646)
T1 construct: The full length cDNAs of human AMPK β2 (NM_005399.3) and human AMPK α2 (NM_006252.3); The full length cDNAs of human AMPK β2 (NM_005399.3); the full length cDNA of human AMPK γ1 (NM_002733.3); 6xHis (N); made in house; host or cells: Escherichia coli BL21 CodonPlus (DE3)-RIL (AMPK); BL21 Star (DE3) (CaMKK2)
Assay: Test Example 2: AMPK activator evaluation, mobility-shift kinase assay after CaMKK2 phosphorylation
Type: biochemical
Conditions: for EC150: compound concentration showing 150% relative to the control (100%); for Emax: maximum rate of increase in activity within the measurement range, control = 100%
Protocol: The full length cDNAs of human AMPK β2 (NM_005399.3) and human AMPK α2 (NM_006252.3) were inserted into the MCS1 and MCS2 of the pETDuet-1 vector to prepare a human AMPK β2 and human AMPK α2 (6× His tag at the 5′ terminus) expressing plasmid. The plasmid was cotransfected with an expression plasmid, in which the full length cDNA of human AMPK γ1 (NM_002733.3) had been inserted into pET28b(+), into BL21 CodonPlus (DE3)-RIL to obtain an expression strain. The expression strain was cultured in TB medium, followed by induction with 0.5 mM IPTG, and cultured at 25° C. for 3 hours and then harvested. After ultrasonication, supernatant was collected and applied to Histrap FF column (GE) and RESOUECE Q column (GE) to prepare 12.5 mg of purified sample containing three types of subunit from 1.8 L of broth.
An expression vector, in which the full length cDNA of human CAMKK β (NM_172226.1) had been inserted into pGEX-6P-3, was transfected into BL21 Star (DE3). The expression strain was cultured in TB medium, followed by induction with 0.5 mM IPTG, and cultured at 25° C. for 3 hours and then harvested. After ultrasonication, supernatant was collected and applied to GSTrap FF column (GE) to prepare 14 mg of GST-fused CAMKK β from 720 ml of broth.
Thus, phosphorylation treatment was carried out as pretreatment.
Human AMPK α2β2γ1 in an amount to give a conversion rate of approximately 10% by reaction for 2 hours, and CaMKK2 in an amount capable of sufficiently imparting activity to AMPK for one hour were mixed in a buffer solution consisting of a 50 mM HEPES-NaOH buffer solution (pH 7.0), 100 mM NaCl, 5 mM magnesium chloride, 0.1% bovine serum albumin, 0.2 mM sodium orthovanadate(V), 1 mM ethylene glycol-bis(2-aminoethyl ether)-N,N,N′,N′-tetraacetic acid (EGTA), 5 mM disodium β-glycerophosphate, 1 mM dithiothreitol and 0.2 mM ATP, and the obtained liquid was left to stand at 25° C. for 1 to 1.5 hours to sufficiently phosphorylate AMPK.
After that, to the enzyme liquid, which had been subjected to phosphorylation treatment, a compound dissolved in DMSO was added so as to have a 1% DMSO concentration. The obtained liquid was left to stand for 10 minutes.
To the liquid, a substrate solution consisting of a 50 mM HEPES-NaOH buffer solution (pH 7.0), 100 mM NaCl, 10 mM magnesium chloride, 0.1% bovine serum albumin, 0.2 mM sodium orthovanadate(V), 1 mM ethylene glycol-bis(2-aminoethyl ether)-N,N,N′,N′-tetraacetic acid (EGTA), 5 mM disodium β-glycerophosphate, 2 mM dithiothreitol, 0.4 mM ATP and 3 μM FL-Peptide 7 (manufactured by Caliper Life Sciences, Inc.) was added in equal amount (10 μl in total). The obtained liquid was allowed to react at 25° C. for 2 hours, and 10 μl of 20 mM EDTA was then added thereto to stop the reaction.
To detect phosphorylated fluorescent substrates, the reaction liquid was applied to a measuring device, LabChip EZ Reader II manufactured by Caliper Life Science, Inc., for detecting fluorescence by using differences in mobility due to differences in charge. The setting conditions for the device were pressure, −1.5 PSI; upstream voltage, −2250 V; downstream voltage, −400 V; post sample buffer sip time, 40 seconds; final delay, 120 seconds; and peak order, Product First.
A conversion rate was calculated from the peak heights of the resulting substrate and product. The conversion rate when not containing a compound was used as a control, and a concentration dependent curve was made by plotting the rate of increase in activity to the control at each concentration of a compound.

T1 sequence (P54646 whole entry): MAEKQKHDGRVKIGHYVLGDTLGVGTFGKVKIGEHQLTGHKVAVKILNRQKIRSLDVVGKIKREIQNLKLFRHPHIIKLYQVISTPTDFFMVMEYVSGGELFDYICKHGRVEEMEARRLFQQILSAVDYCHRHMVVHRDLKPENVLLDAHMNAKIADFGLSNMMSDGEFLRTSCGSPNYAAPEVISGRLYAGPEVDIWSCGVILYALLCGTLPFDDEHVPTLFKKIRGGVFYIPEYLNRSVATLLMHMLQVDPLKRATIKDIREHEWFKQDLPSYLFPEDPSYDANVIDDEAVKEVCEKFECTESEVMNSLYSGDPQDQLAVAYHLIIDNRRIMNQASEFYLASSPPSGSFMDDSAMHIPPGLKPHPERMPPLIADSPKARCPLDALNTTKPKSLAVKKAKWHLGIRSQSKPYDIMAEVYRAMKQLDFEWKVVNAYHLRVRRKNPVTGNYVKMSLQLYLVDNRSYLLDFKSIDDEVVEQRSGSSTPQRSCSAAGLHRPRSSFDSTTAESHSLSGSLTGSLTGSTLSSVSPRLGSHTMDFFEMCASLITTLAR
T1 sequence (O43741 whole entry): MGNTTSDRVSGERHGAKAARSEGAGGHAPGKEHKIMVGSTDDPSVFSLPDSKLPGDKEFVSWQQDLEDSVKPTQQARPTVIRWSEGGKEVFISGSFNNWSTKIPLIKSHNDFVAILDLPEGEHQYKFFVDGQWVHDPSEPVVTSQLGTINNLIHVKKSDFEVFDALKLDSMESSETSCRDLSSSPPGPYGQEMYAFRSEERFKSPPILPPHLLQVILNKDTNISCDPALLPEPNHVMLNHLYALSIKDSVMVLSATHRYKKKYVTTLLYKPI
T1 sequence (P54619 whole entry): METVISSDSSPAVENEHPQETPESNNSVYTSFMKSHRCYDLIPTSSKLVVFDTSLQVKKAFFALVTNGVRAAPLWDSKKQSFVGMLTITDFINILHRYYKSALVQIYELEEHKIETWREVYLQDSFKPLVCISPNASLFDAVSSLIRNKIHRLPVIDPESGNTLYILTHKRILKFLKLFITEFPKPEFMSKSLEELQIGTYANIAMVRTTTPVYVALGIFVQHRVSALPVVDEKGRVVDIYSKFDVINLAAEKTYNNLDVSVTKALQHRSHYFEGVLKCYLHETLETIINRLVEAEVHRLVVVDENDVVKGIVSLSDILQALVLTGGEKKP

| SMILES | EC150 | Emax |
| --- | --- | --- |
| O[C@@H]1CO[C@H]2[C@@H]1OC[C@H]2Oc1nc2nc(NCc3c(F)cc(-c4cnn(CCN5CCOCC5)c4)cc3F)c(Cl)cc2[nH]1 [Compound I-2-228] | 8.5 nM | 528% |
| CC(C)(O)CCc1cc(F)c(CNc2nc3nc(O[C@@H]4CO[C@H]5[C@@H]4OC[C@H]5O)[nH]c3cc2Cl)c(F)c1 [Compound I-2-233] | 9.3 nM | 507% |
| COC/C=C/c1cc(F)c2c(c1)CCC2Nc1nc2nc(O[C@@H]3CO[C@H]4[C@@H]3OC[C@H]4O)[nH]c2cc1Cl (stereo partly shown) [Compound I-2-238] | 4.1 nM | 553% |
| Cn1cc(-c2cc(F)c3c(c2)CCC3Nc2nc3nc(O[C@@H]4CO[C@H]5[C@@H]4OC[C@H]5O)[nH]c3cc2Cl)cn1 (stereo partly shown) [Compound I-2-239] | 5.6 nM | 535% |
| O[C@@H]1CO[C@H]2[C@@H]1OC[C@H]2Oc1nc2nc(/C=C/c3ccc(F)cc3F)c(Cl)cc2[nH]1 [Compound I-2-244] | 92 nM | 517% |
